Measured values reported in PubChem BioAssay (NCI).
“And” between values parts separate entries of the source, which are not always exact repeats. Identical values can stand only once.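 Protocol summary: plate cells (96-well), add compound at 5 concentrations, incubate 48 h, interpolate endpoints linearly. At the GI50, growth is halved. TGI: total growth inhibition.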

Columns and labels:
Assay in all cases: inhibition of tumour cell growth, NCI panel, 48 h
HOP-62 NSCLC = tested on: HOP-62 NSCLC
HOP-92 NSCLC = tested on: HOP-92 NSCLC
HS 578T breast = tested on: HS 578T breast
NCI/ADR-RES ovarian = tested on: NCI/ADR-RES ovarian
OVCAR-3 ovarian = tested on: OVCAR-3 ovarian
PC-3 prostate = tested on: PC-3 prostate
SNB-19 CNS = tested on: SNB-19 CNS
SNB-75 CNS = tested on: SNB-75 CNS
SR leukemia = tested on: SR leukemia
TK-10 renal = tested on: TK-10 renal

| SMILES | GI50 (HOP-62 NSCLC) | TGI (HOP-62 NSCLC) | GI50 (HOP-92 NSCLC) | TGI (HOP-92 NSCLC) | GI50 (HS 578T breast) | TGI (HS 578T breast) | GI50 (NCI/ADR-RES ovarian) | TGI (NCI/ADR-RES ovarian) | GI50 (OVCAR-3 ovarian) | TGI (OVCAR-3 ovarian) | GI50 (PC-3 prostate) | TGI (PC-3 prostate) | GI50 (SNB-19 CNS) | TGI (SNB-19 CNS) | GI50 (SNB-75 CNS) | TGI (SNB-75 CNS) | GI50 (SR leukemia) | TGI (SR leukemia) | GI50 (TK-10 renal) | TGI (TK-10 renal) |
| --- | --- | --- | --- | --- | --- | --- | --- | --- | --- | --- | --- | --- | --- | --- | --- | --- | --- | --- | --- | --- |
| CS(=O)(=O)CCNCc1coc(-c2ccc3ncnc(Nc4ccc(OCc5ccccc5)cc4)c3c2)c1 | 5.03 µM | 11.1 µM | 2.62 µM | 17.3 µM | 2.45 µM | 7.66 µM | 9.47 µM | > 25 µM | 3.46 µM | 13.7 µM | 8.95 µM | > 25 µM | 6.4 µM | > 25 µM | 3.92 µM | 10 µM | 4.81 µM | 12.9 µM | 1.95 µM | 12.2 µM |
| CCN(CC)CCCC(CCl)Nc1ccnc2cc(Cl)ccc12 (centres undefined) | 25.7 µM and 28.7 µM | 71.8 µM and > 100 µM | 11.2 µM and 14.5 µM | 36.6 µM and 42.1 µM | 17.3 µM and 18.1 µM | 42.5 µM and 44.3 µM | 25.2 µM and 23.1 µM | 57.3 µM and 67.7 µM | 10.9 µM and 6.23 µM | 34.7 µM and 28 µM | 27.2 µM and 34.9 µM | > 100 µM | 94.8 µM and > 89.7 µM | > 100 µM | 26.1 µM and 29.5 µM | 59.2 µM and > 73.6 µM | 0.421 µM | 3.25 µM | 10.1 µM and 14.1 µM | 22.2 µM and 29.4 µM |
| CCCCCCCCCCCCCCCCCCOC[C@H](COP(=O)(O)O[C@H]1[C@H](O)[C@@H](O)[C@H](O)C[C@H]1O)OC | > 100 µM and 15.7 µM | > 100 µM and 41.5 µM | 29.4 µM and 12.3 µM | > 100 µM and 25.3 µM | > 100 µM and 17.9 µM | > 100 µM and 34.8 µM | > 100 µM and 18.3 µM | > 100 µM and 33.5 µM | > 100 µM and 16.9 µM | > 100 µM and 34.9 µM | 7.44 µM and 2.94 µM | 43.3 µM and 14.1 µM |  |  |  | 59.6 µM and 27.9 µM |  | 45.9 µM and 40.8 µM | 41.8 µM and 7.74 µM | > 100 µM and 20.7 µM |
| O=C(Oc1ccc[nH]c1=O)c1cc([N+](=O)[O-])cc([N+](=O)[O-])c1 | > 100 µM | > 100 µM | > 100 µM | > 100 µM | > 100 µM | > 100 µM | > 100 µM | > 100 µM | > 100 µM | > 100 µM | > 100 µM | > 100 µM | > 100 µM | > 100 µM | > 100 µM | > 100 µM | 74.8 µM | > 100 µM | > 100 µM | > 100 µM |
| COc1cccc2c1C(=N)c1c(O)c3c(c(O)c1C2=O)C[C@@](O)(C(C)=O)C[C@@H]3O[C@H]1C[C@H](N)[C@H](O)[C@H](C)O1 | 0.152 µM | 1.37 µM |  | 7.35 µM | 1.66 µM | 8.31 µM | 45.3 µM | > 100 µM | 1.13 µM | 7.11 µM | 1.3 µM | 9.33 µM | 0.232 µM | 2.92 µM | 0.159 µM | 2.08 µM | 0.0217 µM | 6.08 µM |  | 3.19 µM |
| COc1ccc2c(c1)C(=O)/C(=C/c1cccc(OCC(=O)c3ccccc3)c1)O2 | 14.5 µM | 28.5 µM | 3.86 µM | 16.1 µM | 13.8 µM | 48.1 µM | 8.9 µM | 26.4 µM | 1.83 µM | 3.36 µM | 4.44 µM | 17.4 µM | 15 µM | 29 µM | 10.7 µM | 22.9 µM | 1.47 µM | 3.26 µM | 2.45 µM | 5.5 µM |
| CC(C)C(O)(C(C)C)C(C)C |  | > 100 µM |  | > 100 µM |  | > 100 µM |  | > 100 µM |  | > 100 µM |  | > 100 µM |  | > 100 µM |  | > 100 µM |  | > 100 µM |  | > 100 µM |
